Results published in paper PMC8828861 (Communications Biology, 2022).

B1: Mycobacterium tuberculosis transcription termination factor Rho (enzyme)
chain: TDTDLITAGESTDGKPSDAAATDPPDLNADEPAGSLATMVLPELRALANRAGVKGTSGMRKNELIAAIEEIRRQANGAPAVDRSAQEHDKGDRPPSSEAPATQGEQTPTEQIDSQSQQVRPERRSATREAGPSGSGERAGTAADDTDNRQGGQQDAKTEERGTDAGGDQGGDQQASGGQQARGDEDGEARQGRRGRRFRDRRRRGERSGDGAEAELREDDVVQPVAGILDVLDNYAFVRTSGYLPGPHDVYVSMNMVRKNGMRRGDAVTGAVRVPKEGEQPNQRQKFNPLVRLDSINGGSVEDAKKRPEFGKLTPLYPNQRLRLETSTERLTTRVIDLIMPIGKGQRALIVSPPKAGKTTILQDIANAITRNNPECHLMVVLVDERPEEVTDMQRSVKGEVIASTFDRPPSDHTSVAELAIERAKRLVEQGKDVVVLLDSITRLGRAYNNASPASGRILSGGVDSTALYPPKRFLGAARNIEEGGSLTIIATAMVETGSTGDTVIFEEFKGTGNAELKLDRKIAERRVFPAVDVNPSGTRKDELLLSPDEFAIVHKLRRVLSGLDSHQAIDLLMSQLRKTKNNYEFLVQVSKTTPGSMDSD
notes: also called MtbRho; WT MtbRho

Columns and labels:
[1] = target: M. tuberculosis Rho (MtbRho) (Mycobacterium tuberculosis, UniProt P9WHF3); format: binding
Chain of M. tuberculosis Rho (MtbRho) (P9WHF3 whole entry): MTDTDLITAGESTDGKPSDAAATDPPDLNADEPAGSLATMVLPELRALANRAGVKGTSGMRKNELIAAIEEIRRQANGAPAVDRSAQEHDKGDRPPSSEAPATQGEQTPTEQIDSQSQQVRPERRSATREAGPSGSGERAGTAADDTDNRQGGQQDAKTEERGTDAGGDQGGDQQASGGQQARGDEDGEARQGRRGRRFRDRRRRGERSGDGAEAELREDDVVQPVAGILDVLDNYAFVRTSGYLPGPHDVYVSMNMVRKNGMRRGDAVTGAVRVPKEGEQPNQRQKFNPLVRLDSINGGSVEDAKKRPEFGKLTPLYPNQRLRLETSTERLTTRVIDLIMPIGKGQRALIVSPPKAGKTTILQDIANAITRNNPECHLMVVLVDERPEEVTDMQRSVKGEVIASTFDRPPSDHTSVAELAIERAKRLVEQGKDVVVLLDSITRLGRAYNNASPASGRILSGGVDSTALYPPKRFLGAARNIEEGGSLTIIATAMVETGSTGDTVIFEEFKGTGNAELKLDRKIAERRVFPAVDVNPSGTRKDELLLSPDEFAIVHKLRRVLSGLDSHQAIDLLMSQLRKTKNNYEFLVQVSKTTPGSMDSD

[2] = target: the molecule itself; experiment: SEC-MALS

Molecule | cryo-EM structure, 3.3 Å, 6 ATP per hexamer [1] | stoichiometry N [2]
Nc1ncnc2c1ncn2[C@@H]1O[C@H](COP(=O)(O)OP(=O)(O)OP(=O)(O)O)[C@@H](O)[C@H]1O [ATP] | clear electron density in all the ATPase pockets of MtbRho reveals that ATP ligands are held by a network | –
B1 | – | 6
